{"source": "PubChem BioAssay (NCI)", "test_in_all_cases": "NCI tumour cell line growth inhibition, 48 h", "key": {"[1]": {"test_system": "SK-MEL-2 melanoma"}, "[2]": {"test_system": "LOX IMVI melanoma"}, "[3]": {"test_system": "SW-620 colon"}, "[4]": {"test_system": "COLO 205 colon"}, "[5]": {"test_system": "786-0 renal"}, "[6]": {"test_system": "BT-549 breast"}, "[7]": {"test_system": "IGROV1 ovarian"}, "[8]": {"test_system": "OVCAR-8 ovarian"}, "[9]": {"test_system": "SNB-75 CNS"}, "[10]": {"test_system": "DU-145 prostate"}}, "note": "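Method: 48-hour compound exposure of cells in 96-well plates, five concentrations, linear interpolation of endpoints. GI50 marks 50% less growth. TGI: total growth inhibition.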", "data": [{"smiles": "CC(=O)NS(=O)(=O)c1ccc(-n2nc(-c3ccccc3)cc2C2=CC(=O)C=CC2=O)cc1", "values": [{"measurement": "GI50", "setting": "[1]", "value": "> 100", "unit": "µM"}, {"measurement": "TGI", "setting": "[1]", "value": "> 100", "unit": "µM"}, {"measurement": "GI50", "setting": "[2]", "value": "> 100", "unit": "µM"}, {"measurement": "TGI", "setting": "[2]", "value": "> 100", "unit": "µM"}, {"measurement": "GI50", "setting": "[3]", "value": 36.6, "unit": "µM"}, {"measurement": "TGI", "setting": "[3]", "value": "> 100", "unit": "µM"}, {"measurement": "GI50", "setting": "[4]", "value": "> 100", "unit": "µM"}, {"measurement": "TGI", "setting": "[4]", "value": "> 100", "unit": "µM"}, {"measurement": "GI50", "setting": "[5]", "value": 54.4, "unit": "µM"}, {"measurement": "TGI", "setting": "[5]", "value": "> 100", "unit": "µM"}, {"measurement": "GI50", "setting": "[6]", "value": 48.9, "unit": "µM"}, {"measurement": "TGI", "setting": "[6]", "value": "> 100", "unit": "µM"}, {"measurement": "GI50", "setting": "[7]", "value": "> 100", "unit": "µM"}, {"measurement": "TGI", "setting": "[7]", "value": "> 100", "unit": "µM"}, {"measurement": "GI50", "setting": "[8]", "value": "> 100", "unit": "µM"}, {"measurement": "TGI", "setting": "[8]", "value": "> 100", "unit": "µM"}]}, {"smiles": "N[C@H](C(=O)O)[C@@H](Cl)CC(=O)O", "values": [{"measurement": "TGI", "setting": "[1]", "value": "> 100", "unit": "µM"}, {"measurement": "TGI", "setting": "[2]", "value": "> 100", "unit": "µM"}, {"measurement": "TGI", "setting": "[9]", "value": "> 100", "unit": "µM"}, {"measurement": "TGI", "setting": "[3]", "value": "> 100", "unit": "µM"}, {"measurement": "TGI", "setting": "[4]", "value": "> 100", "unit": "µM"}, {"measurement": "TGI", "setting": "[5]", "value": "> 100", "unit": "µM"}, {"measurement": "TGI", "setting": "[7]", "value": "> 100", "unit": "µM"}, {"measurement": "TGI", "setting": "[8]", "value": "> 100", "unit": "µM"}]}, {"smiles": "N=C1C(c2nc(-c3ccc(Br)cc3)cs2)=C(O)CN1CC1CCCO1", "note": "(stereo not drawn)", "values": [{"measurement": "GI50", "setting": "[1]", "value": "> 100", "unit": "µM"}, {"measurement": "TGI", "setting": "[1]", "value": "> 100", "unit": "µM"}, {"measurement": "GI50", "setting": "[9]", "value": 7.13, "unit": "µM"}, {"measurement": "TGI", "setting": "[9]", "value": "> 100", "unit": "µM"}, {"measurement": "GI50", "setting": "[4]", "value": "> 100", "unit": "µM"}, {"measurement": "TGI", "setting": "[4]", "value": "> 100", "unit": "µM"}, {"measurement": "GI50", "setting": "[5]", "value": "> 100", "unit": "µM"}, {"measurement": "TGI", "setting": "[5]", "value": "> 100", "unit": "µM"}, {"measurement": "GI50", "setting": "[6]", "value": "> 100", "unit": "µM"}, {"measurement": "TGI", "setting": "[6]", "value": "> 100", "unit": "µM"}]}, {"smiles": "CCCCCCCCCCCCCCC(O)C1CCC(C(O)CCC(O)CCCCCC(O)CC2=CC(C)OC2=O)O1", "note": "(stereo not drawn)", "values": [{"measurement": "TGI", "setting": "[1]", "value": 9.03, "unit": "µM"}, {"measurement": "TGI", "setting": "[2]", "value": 4.59, "unit": "µM"}, {"measurement": "TGI", "setting": "[9]", "value": 8.88, "unit": "µM"}, {"measurement": "TGI", "setting": "[3]", "value": 13.9, "unit": "µM"}, {"measurement": "TGI", "setting": "[4]", "value": 8.41, "unit": "µM"}, {"measurement": "TGI", "setting": "[5]", "value": 8.87, "unit": "µM"}, {"measurement": "TGI", "setting": "[7]", "value": 18.6, "unit": "µM"}, {"measurement": "TGI", "setting": "[8]", "value": 14.8, "unit": "µM"}]}, {"smiles": "O=C1C2=C(c3ccccc31)C(c1ccc(Cl)cc1)NC(=S)N2", "note": "(stereo not drawn)", "values": [{"measurement": "TGI", "setting": "[1]", "value": 58.7, "unit": "µM"}, {"measurement": "TGI", "setting": "[9]", "value": 34, "unit": "µM"}, {"measurement": "TGI", "setting": "[3]", "value": 40.5, "unit": "µM"}, {"measurement": "TGI", "setting": "[4]", "value": 64.9, "unit": "µM"}, {"measurement": "TGI", "setting": "[5]", "value": 34, "unit": "µM"}, {"measurement": "TGI", "setting": "[7]", "value": 42.6, "unit": "µM"}, {"measurement": "TGI", "setting": "[8]", "value": 38.4, "unit": "µM"}]}, {"smiles": "COc1cc(C(=O)C/C(CCC(=O)Nc2ccc(Cl)cc2Cl)=N/Nc2nnc(C)n2N)ccc1O", "values": [{"measurement": "TGI", "setting": "[1]", "value": "> 100", "unit": "µM"}, {"measurement": "TGI", "setting": "[2]", "value": "> 100", "unit": "µM"}, {"measurement": "TGI", "setting": "[9]", "value": "> 100", "unit": "µM"}, {"measurement": "TGI", "setting": "[3]", "value": "> 100", "unit": "µM"}, {"measurement": "TGI", "setting": "[4]", "value": "> 100", "unit": "µM"}, {"measurement": "TGI", "setting": "[5]", "value": "> 100", "unit": "µM"}, {"measurement": "TGI", "setting": "[7]", "value": "> 100", "unit": "µM"}, {"measurement": "TGI", "setting": "[8]", "value": "> 100", "unit": "µM"}]}, {"smiles": "O=c1cccccc1NCCNc1cccccc1=O", "values": [{"measurement": "TGI", "setting": "[1]", "value": "> 100", "unit": "µM"}, {"measurement": "TGI", "setting": "[2]", "value": "> 100", "unit": "µM"}, {"measurement": "TGI", "setting": "[3]", "value": "> 100", "unit": "µM"}, {"measurement": "TGI", "setting": "[4]", "value": "> 100", "unit": "µM"}, {"measurement": "TGI", "setting": "[5]", "value": "> 100", "unit": "µM"}, {"measurement": "TGI", "setting": "[7]", "value": "> 100", "unit": "µM"}, {"measurement": "TGI", "setting": "[8]", "value": "> 100", "unit": "µM"}]}, {"smiles": "Cn1c(O)c(N=NC(N)=S)c2ccccc21", "values": [{"measurement": "GI50", "setting": "[10]", "value": 53.7, "unit": "µM"}, {"measurement": "TGI", "setting": "[10]", "value": "> 100", "unit": "µM"}, {"measurement": "GI50", "setting": "[1]", "value": "> 100", "unit": "µM"}, {"measurement": "TGI", "setting": "[1]", "value": "> 100", "unit": "µM"}, {"measurement": "GI50", "setting": "[2]", "value": 58.5, "unit": "µM"}, {"measurement": "TGI", "setting": "[2]", "value": "> 100", "unit": "µM"}, {"measurement": "GI50", "setting": "[9]", "value": 18.3, "unit": "µM"}, {"measurement": "TGI", "setting": "[9]", "value": 98, "unit": "µM"}, {"measurement": "GI50", "setting": "[3]", "value": 54.6, "unit": "µM"}, {"measurement": "TGI", "setting": "[3]", "value": "> 100", "unit": "µM"}, {"measurement": "GI50", "setting": "[4]", "value": 94.9, "unit": "µM"}, {"measurement": "TGI", "setting": "[4]", "value": "> 100", "unit": "µM"}, {"measurement": "GI50", "setting": "[5]", "value": 58.7, "unit": "µM"}, {"measurement": "TGI", "setting": "[5]", "value": "> 100", "unit": "µM"}, {"measurement": "GI50", "setting": "[6]", "value": "> 100", "unit": "µM"}, {"measurement": "TGI", "setting": "[6]", "value": "> 100", "unit": "µM"}, {"measurement": "GI50", "setting": "[8]", "value": 54.8, "unit": "µM"}, {"measurement": "TGI", "setting": "[8]", "value": "> 100", "unit": "µM"}]}, {"smiles": "O=C(Nc1ccccc1C(=O)O)C(=O)C(C(=O)c1ccccc1-c1ccccc1)C1OC(=O)c2ccccc21", "note": "(stereo not drawn)", "values": [{"measurement": "TGI", "setting": "[1]", "value": "> 100", "unit": "µM"}, {"measurement": "TGI", "setting": "[2]", "value": 38.3, "unit": "µM"}, {"measurement": "TGI", "setting": "[9]", "value": 53.5, "unit": "µM"}, {"measurement": "TGI", "setting": "[3]", "value": 56.6, "unit": "µM"}, {"measurement": "TGI", "setting": "[4]", "value": 47.5, "unit": "µM"}, {"measurement": "TGI", "setting": "[5]", "value": 33.3, "unit": "µM"}, {"measurement": "TGI", "setting": "[7]", "value": 56.3, "unit": "µM"}, {"measurement": "TGI", "setting": "[8]", "value": 37.9, "unit": "µM"}]}, {"smiles": "C[C@@H](c1ccccc1)N(CC#N)C1CCC[C@H]1O", "note": "(stereo partly drawn)", "values": [{"measurement": "TGI", "setting": "[1]", "value": "> 100", "unit": "µM"}, {"measurement": "TGI", "setting": "[2]", "value": "> 100", "unit": "µM"}, {"measurement": "TGI", "setting": "[9]", "value": "> 100", "unit": "µM"}, {"measurement": "TGI", "setting": "[3]", "value": "> 100", "unit": "µM"}, {"measurement": "TGI", "setting": "[4]", "value": "> 100", "unit": "µM"}, {"measurement": "TGI", "setting": "[5]", "value": "> 100", "unit": "µM"}, {"measurement": "TGI", "setting": "[7]", "value": "> 100", "unit": "µM"}, {"measurement": "TGI", "setting": "[8]", "value": "> 100", "unit": "µM"}]}]}
